US5296591A, “Trifluoromethylketone derivatives, processes for preparation thereof and use thereof” (Fujisawa Pharmaceutical Co., Ltd., priority 1990, dated 1994)

Tests used:
[1] = molecular target: T1, human sputum elastase (HSE) (Homo sapiens, UniProt P08246); assay: Protease inhibition assay (in vitro), human sputum elastase; format: biochemical; settings: substrate methoxysuccinyl-(Ala)2-Pro-Val-p-nitroanilide, 30 min, room temperature, pH 7.5
T1 construct: HSE was obtained from Elastin Products Company Inc., Mo., U.S.A; purchased Elastin Products Company Inc; host or cells: human sputum (from the enzyme's name)
T1 sequence (P08246 30-267): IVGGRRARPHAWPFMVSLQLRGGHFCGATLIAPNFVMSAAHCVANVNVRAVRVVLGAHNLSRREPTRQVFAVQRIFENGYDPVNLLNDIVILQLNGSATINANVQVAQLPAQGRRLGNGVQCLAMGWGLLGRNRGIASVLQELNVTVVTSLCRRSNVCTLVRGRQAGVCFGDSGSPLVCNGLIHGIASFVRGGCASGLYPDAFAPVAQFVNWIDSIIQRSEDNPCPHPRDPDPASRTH
Method: (§1) A buffer used throughout the assay was 0.1M HEPES (4-(2-hydroxyethyl)-1-piperazineethanesulfonic acid) containing 0.5M NaCl, pH 7.5. Twenty-five microliters of 2 mM methoxysuccinyl-(Ala)2 -Pro-Val-p-nitroanilide (100 mM of dimethyl sulfoxide solution were diluted in the buffer) and 50 μl of sample (10 μl of sample in organic solvent was diluted 5-fold in the buffer) were mixed in wells of 96 well-microliter plate. An absorbance of the mixture in wavelength at 415 nm was measured by a microplate reader (Corona Electric Co., Ibaraki, Japan). After the measurement, 25 μl of 6 μg/ml human sputum elastase (HSE) was added and the mixture was allowed to stand for 30 minutes at room temperature. Then, the absorbance at 415 nm was measured. Percent inhibition by drug was determined by 100×(1-"r" inhibitor present/"r" inhibitor absent), where "r" is absorbance after 30 minutes incubation minus absorbance before enzyme addition. Effect of inhibitors against porcine pancreas elastase (Type IV, 5 μg/ml final) was assayed similarly using N-succinyl-(Ala)3 -p-nitroanilide. HSE was obtained from Elastin Products Company Inc., Mo., U.S.A. All other substrates and protease were purchased from Sigma Chemicals Co.

[2] = molecular target: T2, porcine pancreas elastase (Type IV) (Sus scrofa, UniProt P00772); assay: Protease inhibition assay (in vitro), porcine pancreas elastase; format: biochemical; settings: substrate N-succinyl-(Ala)3-p-nitroanilide, enzyme 5 μg/ml final; read-out: IC50 Porcine pancreas elastase
T2 construct: purchased Sigma Chemicals Co; host or cells: porcine pancreas (from the enzyme's name)
T2 sequence (P00772 27-266): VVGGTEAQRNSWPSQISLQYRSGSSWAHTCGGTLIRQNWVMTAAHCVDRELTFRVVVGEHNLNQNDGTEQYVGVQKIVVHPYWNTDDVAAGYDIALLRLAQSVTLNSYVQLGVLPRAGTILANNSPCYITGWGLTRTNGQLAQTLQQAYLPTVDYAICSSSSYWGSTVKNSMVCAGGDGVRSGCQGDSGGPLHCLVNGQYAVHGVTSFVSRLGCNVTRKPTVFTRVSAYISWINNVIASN
Method: as §1

IC50 [1] [µM]	IC50 [2] [µM]	Compound
0.45	4.4	CC(C)C(NC(=O)[C@@H]1CCCN1C(=O)[C@@H](NC(=O)c1ccc(C(=O)NCC(=O)OCc2ccccc2)cc1)C(C)C)C(=O)C(F)(F)F (mixture of isomers) [Example 1, 3(RS)-[[4-[(benzyloxycarbonyl)methylaminocarbonyl]-phenylcarbonyl]-L-valyl-L-prolyl]amino-1,1,1-trifluoro-4-methyl-2-oxopentane]
0.3	5.1	CC(C)C(NC(=O)[C@@H]1CCCN1C(=O)[C@@H](NC(=O)c1ccc(C(=O)NCc2ccc(Cl)cc2)cc1)C(C)C)C(=O)C(F)(F)F (mixture of isomers) [Example 5, 3(RS)-[[4-[(4-Chlorobenzyl)aminocarbonyl]-phenylcarbonyl]-L-valyl-L-prolyl]amino-1,1,1-trifluoro-4-methyl-2-oxopentane]
0.43	6.9	CC(C)C(NC(=O)[C@@H]1CCCN1C(=O)[C@@H](NC(=O)c1ccc(C(=O)NCc2ccc([N+](=O)[O-])cc2)cc1)C(C)C)C(=O)C(F)(F)F (mixture of isomers) [Example 6, 3(RS)-[[4-[(4-Nitrobenzyl)aminocarbonyl]phenylcarbonyl]-L-valyl-L-prolyl]amino-1,1,1-trifluoro-4-methyl-2-oxopentane]
0.32	3.8	CC(C)C(NC(=O)[C@@H]1CCCN1C(=O)[C@@H](NC(=O)c1ccc(C(=O)Nc2ccc(Cl)cc2)cc1)C(C)C)C(=O)C(F)(F)F (mixture of isomers) [Example 7, 3(RS)-[[4-[(4-Chlorophenyl)aminocarbonyl]phenylcarbonyl]-L-valyl-L-prolyl]amino-1,1,1-trifluoro-4-methyl-2-oxopentane]
8	310	CC(C)C(NC(=O)[C@@H]1CCCN1C(=O)[C@@H](NC(=O)c1ccc(C(=O)N[C@@H](CCC(=O)OCc2ccccc2)C(=O)OCc2ccccc2)cc1)C(C)C)C(=O)C(F)(F)F (mixture of isomers) [Example 10, 3(RS)-[[4-[[1(S),3-bis(Benzyloxycarbonyl)propyl]aminocarbonyl]phenylcarbonyl]-L-valyl-L-prolyl]amino-1,1,1-trifluoro-4-methyl-2-oxopentane]
1.1	3.4	CC(C)C(NC(=O)[C@@H]1CCCN1C(=O)[C@@H](NC(=O)c1ccc(C(=O)N[C@@H](CCC(=O)O)C(=O)O)cc1)C(C)C)C(=O)C(F)(F)F (mixture of isomers) [Example 17, 3(RS)-[[4-[(1(S),3-Dicarboxypropyl)aminocarbonyl]-phenylcarbonyl]-L-valyl-L-prolyl]amino-1,1,1-trifluoro-4-methyl-2-oxopentane]
0.61	3.8	CC(C)C(NC(=O)[C@@H]1CCCN1C(=O)[C@@H](NC(=O)c1ccc(C(=O)NCc2ccc(N)cc2)cc1)C(C)C)C(=O)C(F)(F)F (mixture of isomers) [Example 18, 3(RS)-[[4-[(4-aminobenzyl)aminocarbonyl]phenylcarbonyl]-L-valyl-L-prolyl]amino-1,1,1-trifluoro-4-methyl-2-oxopentane]
0.68	4.9	CC(C)C(NC(=O)[C@@H]1CCCN1C(=O)[C@@H](NC(=O)Nc1ccc(C(=O)NCC(=O)OCc2ccccc2)cc1)C(C)C)C(=O)C(F)(F)F (mixture of isomers) [Example 22, 3(RS)-[[4-(Benzyloxycarbonylmethylaminocarbonyl)phenylaminocarbonyl]-L-valyl-L-prolyl]amino-1,1,1-trifluoro-2-oxo-4-methylpentane]
1.4	3.8	CC(C)C(NC(=O)[C@@H]1CCCN1C(=O)[C@@H](NC(=O)Nc1ccc(C(=O)NCC(=O)N(C)C)cc1)C(C)C)C(=O)C(F)(F)F (mixture of isomers) [Example 24, 3(RS)-[[4-(Dimethylaminocarbonylmethylaminocarbonyl)phenylaminocarbonyl]-L-valyl-L-prolyl]amino-1,1,1-trifluoro-2-oxo-4-methylpentane]
